Assay results reported in patent US20190375708A1 (VenatoRx Pharmaceuticals, Inc., priority 2018, published 2019).

Key:
[1] = In vitro cytotoxicity assay (MTT cell viability) in HepG2 cells; assay type: cell-based, human; conditions: human
In short: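 HepG2 seeded overnight, then 7-day compound exposure (30 μM–1.0 nM, half-log steps), 37 °C. MTT 3-4 h, DMSO solubilization, A492. % of vehicle → CC50, 4-PL fit.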

[2] = tested on: HBV replication in HepAD38 cells; experiment: Anti-HBV replication assay in HepAD38 cells (QPCR of extracellular HBV DNA); assay type: cell-based, HBV (genotype D, serotype ayw); conditions: Hepatitis B virus, 168 h, 7 days incubation, extracellular HBV DNA by QPCR, read-out: Anti-HBV EC50
In short: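 Steps: seed HepAD38 overnight without tetracycline; refresh medium and add 1 log10 serial dilutions ([…]); incubate 7 days at 37 °C; quantify supernatant HBV DNA by QPCR; derive EC50 from a 4-parameter dose-response fit.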

| Compound | CC50 at 7 days [1] | EC50 [2] |
| --- | --- | --- |
| Cc1c(C(=O)Nc2ccc(F)c(F)c2)c(C)n(C)c1C(=O)C(=O)NC(C)(C)CO [Example 148, N-(3,4-difluorophenyl)-5-(2-((1-hydroxy-2-methylpropan-2-yl)amino)-2-oxoacetyl)-1,2,4-trimethyl-1H-pyrrole-3-carboxamide] | > 30 µM | < 0.05 µM |
| Cc1cc(NC(=O)c2c(C)c(C(=O)C(=O)N[C@H]3CC[C@@H](C#N)CC3)n(C)c2C)ccc1F [Example 283] | 5 to 30 µM | < 0.05 µM |
| Cc1noc([C@H](NC(=O)C(=O)c2c(C)c(C(=O)Nc3ccc(F)c(C)c3)c(C)n2C)C(C)C)n1 [Example 144, (R)-N-(4-fluoro-3-methylphenyl)-1,2,4-trimethyl-5-(2-((2-methyl-1-(3-methyl-1,2,4-oxadiazol-5-yl)propyl)amino)-2-oxoacetyl)-1H-pyrrole-3-carboxamide] | > 30 µM | < 0.05 µM |
| Cc1cc(NC(=O)c2c(C)c(C(=O)C(=O)N[C@@H]3CCCC[C@H]3O)n(C)c2C)ccc1F [Example 136, N-(4-fluoro-3-methylphenyl)-5-(2-(((1R,2R)-2-hydroxycyclohexyl)amino)-2-oxoacetyl)-1,2,4-trimethyl-1H-pyrrole-3-carboxamide] | > 30 µM | < 0.05 µM |
| Cc1c(C(=O)Nc2ccc(F)c(F)c2)c(C)n(C)c1C(=O)C(=O)NC1CCC(F)(F)CC1 [Example 298, 5-(2-((4,4-difluorocyclohexyl)amino)-2-oxoacetyl)-N-(3,4-difluorophenyl)-1,2,4-trimethyl-1H-pyrrole-3-carboxamide] | > 30 µM | < 0.05 µM |
| Cc1cc(NC(=O)c2c(C)c(C(=O)C(=O)NC3(C)CC=CCC3)n(C)c2C)ccc1F (stereo not drawn) [Example 694, N-(4-fluoro-3-methylphenyl)-1,2,4-trimethyl-5-(2-((1-methylcyclohex-3-en-1-yl)amino)-2-oxoacetyl)-1H-pyrrole-3-carboxamide] | > 30 µM | < 0.05 µM |
| Cc1cc(NC(=O)c2c(C)c(C(=O)C(=O)NCC(C)(C)CO)n(C)c2C)ccc1F [Example 65, N-(4-fluoro-3-methylphenyl)-5-(2-((3-hydroxy-2,2-dimethylpropyl)amino)-2-oxoacetyl)-1,2,4-trimethyl-1H-pyrrole-3-carboxamide] | > 30 µM | < 0.05 µM |
| C#CCO[C@H]1CC[C@@H](NC(=O)C(=O)c2c(C)c(C(=O)Nc3ccc(F)c(C)c3)c(C)n2C)CC1 [Example 629, N-(4-fluoro-3-methylphenyl)-1,2,4-trimethyl-5-(2-oxo-2-(((1s,4s)-4-(prop-2-yn-1-yloxy)cyclohexxyl)amino)acetyl)-1H-pyrrole-3-carboxamide] | > 30 µM | < 0.05 µM |
| Cc1c(C(=O)Nc2ccc(F)c(Cl)c2)c2n(c1C(=O)C(=O)NCc1cnc(N)s1)CCCC2 [Example 448, 3-(2-(((2-aminothiazol-5-yl)methyl)amino)-2-oxoacetyl)-N-(3-chloro-4-fluorophenyl)-2-methyl-5,6,7,8-tetrahydroindolizine-1-carboxamide] | 5 to 30 µM | < 0.05 µM |
| Cc1cc(NC(=O)c2c(C)c(C(=O)C(=O)N[C@H]3CC[C@H](C(C)(C)O)CC3)n(C)c2C)ccc1F [Example 677, N-(4-fluoro-3-methylphenyl)-5-(2-(((1r,4r)-4-(2-hydroxypropan-2-yl)cyclohexyl)amino)-2-oxoacetyl)-1,2,4-trimethyl-1H-pyrrole-3-carboxamide] | > 30 µM | < 0.05 µM |
| Cc1cc(NC(=O)c2c(Cl)c(C(=O)C(=O)NC(C)(C)CO)n(C)c2C)ccc1F [Example 365, 4-chloro-N-(4-fluoro-3-methylphenyl)-5-(2-((1-hydroxy-2-methylpropan-2-yl)amino)-2-oxoacetyl)-1,2-dimethyl-1H-pyrrole-3-carboxamide] | > 30 µM | < 0.05 µM |
| Cc1noc([C@@H](C)NC(=O)C(=O)c2c(C)c(C(=O)Nc3ccc(F)c(Cl)c3)c3n2CCCC3)n1 [Example 447, (R)-N-(3-chloro-4-fluorophenyl)-2-methyl-3-(2-((1-(3-methyl-1,2,4-oxadiazol-5-yl)ethyl)amino)-2-oxoacetyl)-5,6,7,8-tetrahydroindolizine-1-carboxamide] | 5 to 30 µM | < 0.05 µM |
| Cc1csc(NC(=O)C(=O)c2c(C)c(C(=O)Nc3cc(F)c(F)c(F)c3)c(C)n2C)n1 [Example 323, 1,2,4-trimethyl-5-(2-((4-methylthiazol-2-yl)amino)-2-oxoacetyl)-N-(3,4,5-trifluorophenyl)-1H-pyrrole-3-carboxamide] | 5 to 30 µM | < 0.05 µM |
| Cc1cc(NC(=O)c2c(C)c(C(=O)C(=O)Nc3ccc(C(F)(F)F)nc3)n(C)c2C)ccc1F [Example 264, N-(4-fluoro-3-methylphenyl)-1,2,4-trimethyl-5-(2-oxo-2-((6-(trifluoromethyl)pyridin-3-yl)amino)acetyl)-1H-pyrrole-3-carboxamide] | 5 to 30 µM | < 0.05 µM |
| Cc1cc(NC(=O)c2c(C)c(C(=O)C(=O)NC3CCOCC3)n(C)c2C)ccc1F [Example 247, N-(4-fluoro-3-methylphenyl)-1,2,4-trimethyl-5-(2-oxo-2-((tetrahydro-2H-pyran-4-yl)amino)acetyl)-1H-pyrrole-3-carboxamide] | 5 to 30 µM | < 0.05 µM |
| Cc1c(C(=O)Nc2ccnc(Cl)c2)c(C)n(C)c1C(=O)C(=O)N[C@H]1CC[C@@H](O)CC1 [Example 252, N-(2-chloropyridin-4-yl)-5-(2-(((1s,4s)-4-hydroxycyclohexyl)amino)-2-oxoacetyl)-1,2,4-trimethyl-1H-pyrrole-3-carboxamide] | > 30 µM | 0.05 to 0.499 µM |
| Cc1cc(NC(=O)c2c(C)c(C(=O)C(=O)NC3CCN(C4CCSCC4)CC3)n(C)c2C)ccc1F [Example 654, N-(4-fluoro-3-methylphenyl)-1,2,4-trimethyl-5-(2-oxo-2-((1-(tetrahydro-2H-thiopyran-4-yl)piperidin-4-yl)amino)acetyl)-1H-pyrrole-3-carboxamide] | > 30 µM | < 0.05 µM |
| Cc1cc(NC(=O)c2c(C)c(C(=O)C(=O)NC34CC5CC(CC(O)(C5)C3)C4)n(CCO)c2C)ccc1F [Example 73, N-(4-fluoro-3-methylphenyl)-5-(2-(((1r,3s,5R,7S)-3-hydroxyadamantan-1-yl)amino)-2-oxoacetyl)-1-(2-hydroxyethyl)-2,4-dimethyl-1H-pyrrole-3-carboxamide] | > 30 µM | > 1 µM |
| Cc1c(C(=O)Nc2ccc(F)c(Cl)c2)c(C)n(C)c1C(=O)C(=O)Nc1ccc(F)c(F)c1 [Example 313] | 5 to 30 µM | < 0.05 µM |
| Cc1cc(NC(=O)c2c(C)c(C(=O)C(=O)Nc3ccc(B(O)O)cc3)n(C)c2C)ccc1F [Example 255, (4-(2-(4-((4-fluoro-3-methylphenyl)carbamoyl)-1,3,5-trimethyl-1H-pyrrol-2-yl)-2-oxoacetamido)phenyl)boronic acid] | 5 to 30 µM | < 0.05 µM |
| Cc1cc(NC(=O)c2c(C)c(C(=O)C(=O)NCc3nnc(C(F)(F)F)[nH]3)n(C)c2C)ccc1F [Example 244, N-(4-fluoro-3-methylphenyl)-1,2,4-trimethyl-5-(2-oxo-2-(((t-(trifluoromethyl)-4H-1,2,4-triazol-3-yl)methyl)amino)acetyl)-1H-pyrrole-3-carboxamide] | 5 to 30 µM | 0.05 to 0.499 µM |
